# Data: ChEMBL document CHEMBL3865806, “3-Hydrazinoindolin-2-one derivatives: Chemical classification and investigation of their targets as anticancer agents” (Eur J Med Chem, 2016)
# Assays:
# [1] = Cytotoxicity against human HOP62 cells measured after 48 hrs by SRB assay; type: functional; conditions: HOP-62, 48 h
# [2] = Cytotoxicity against human MOLT4 cells measured after 48 hrs by SRB assay; type: functional; conditions: MOLT-4, 48 h
# [3] = Cytotoxicity against human HL-60(TB) cells measured after 48 hrs by SRB assay; type: functional; conditions: HL-60, 48 h
# [4] = Cytotoxicity against human KB-3-1 cells measured after 72 hrs by MTT assay; type: functional, cell-based; conditions: KB 3-1, 72 h
# [5] = Cytotoxicity against human KBV1 cells expressing P-glycoprotein measured after 72 hrs by MTT assay; type: functional, cell-based; conditions: KB-V1, 72 h
# [6] = molecular target: T1, Hepatocyte growth factor receptor (Homo sapiens, UniProt P08581); assay: Inhibition of C-Met in human S114 cells assessed as inhibition of HGF-stimulated autophosphorylation preincubated for 60 mins followed by HGF-stimulation measured after 15 minsby DELFIA method; type: cell-based
# [7] = molecular target: T1, Hepatocyte growth factor receptor; assay: Inhibition of GST-tagged c-Met (unknown origin) assessed as phosphotyrosine levels preincubated foe 15 mins followed by addition of poly(glutamic acid-tyrosine (4:1)) as substrate and ATP by ELISA
# [8] = Anticancer activity against human HeLa cells measured after 48 hrs by MTT assay; type: functional, cell-based
# [9] = Antiproliferative activity against human MCF7 cells measured after 48 hrs by MTT assay; type: functional, cell-based; conditions: MCF7, 48 h
# [10] = Anticancer activity against human IMR32 cells measured after 48 hrs by MTT assay; type: functional, cell-based; conditions: IMR-32, 48 h
# [11] = Cytotoxicity against human UO31 cells measured after 48 hrs by SRB assay; type: functional; conditions: UO-31, 48 h
# [12] = Cytotoxicity against human […] cells measured after 48 hrs by SRB assay; type: functional; conditions: RXF 393, 48 h
# [13] = Cytotoxicity against human U251 cells measured after 48 hrs by SRB assay; type: functional; conditions: U-251, 48 h
# [14] = Antiproliferative activity against human K562 cells measured after 48 hrs by WST1 assay; type: functional, cell-based; conditions: K562, 48 h
# [15] = Antiproliferative activity against human MCF7 cells measured after 48 hrs by SRB assay; type: functional, cell-based; conditions: MCF7, 48 h
# [16] = Cytotoxicity against human HepG2 cells measured after 72 hrs by SRB assay; type: functional, cell-based; conditions: HepG2, 72 h
# [17] = Cytotoxicity against porcine testicular cells assessed as cell death at 120 to 250 ug/ml; type: toxicity, cell-based, Sus scrofa; conditions: pig
# [18] = molecular target: T2, Tyrosine-protein phosphatase non-receptor type 11 (Homo sapiens, UniProt Q06124)
# T2 sequence (Q06124 whole entry): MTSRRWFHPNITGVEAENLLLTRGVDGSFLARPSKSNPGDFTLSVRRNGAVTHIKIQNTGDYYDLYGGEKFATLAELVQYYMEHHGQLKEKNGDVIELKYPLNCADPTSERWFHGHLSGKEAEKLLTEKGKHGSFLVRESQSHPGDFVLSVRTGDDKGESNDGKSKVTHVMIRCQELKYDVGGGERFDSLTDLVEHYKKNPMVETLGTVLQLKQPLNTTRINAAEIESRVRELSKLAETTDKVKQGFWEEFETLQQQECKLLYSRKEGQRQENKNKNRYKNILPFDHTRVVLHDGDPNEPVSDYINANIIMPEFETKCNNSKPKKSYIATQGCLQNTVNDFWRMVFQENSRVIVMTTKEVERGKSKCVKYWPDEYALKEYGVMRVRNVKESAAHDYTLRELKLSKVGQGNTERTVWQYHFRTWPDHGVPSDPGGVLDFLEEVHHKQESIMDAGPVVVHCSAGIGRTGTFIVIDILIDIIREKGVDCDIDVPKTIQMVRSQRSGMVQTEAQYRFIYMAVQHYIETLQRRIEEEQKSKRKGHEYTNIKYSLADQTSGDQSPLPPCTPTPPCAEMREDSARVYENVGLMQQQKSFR
# Description: Inhibition of human GST-tagged Shp2 (205 to 593 residues) expressed Escherichia coli DH5alpha assessed as inhibition of PTP activity using DiFMUP as substrate measured after 30 mins by fluorescence analysis
# [19] = molecular target: Glycogen synthase kinase-3 beta (Homo sapiens, UniProt P49841); assay: Inhibition of GSK-3beta (unknown origin) assessed as inhibition of phosphorylation using Ser/Thr 9 peptide as substrate by FRET-based Z-LYTE assay
# [20] = Antiproliferative activity against mouse L1210 cells; type: functional, cell-based
# [21] = molecular target: Epidermal growth factor receptor (Homo sapiens) (UniProt P00533); assay: Inhibition of EGFR (unknown origin) at 100 uM relative to control
# [22] = Growth inhibition of human MDA-MB-468 cells measured after 48 hrs by SRB assay; type: functional
# [23] = Growth inhibition of human NCI-H522 cells measured after 48 hrs by SRB assay; type: functional
# [24] = Growth inhibition of human SR cells measured after 48 hrs by SRB assay; type: functional
# [25] = test system: HeLa; assay: Inhibition of HDAC in human HeLa cell nuclear extract at 30 uM using Fluor de Lys as substrate measured after 10 to 15 mins by fluorimetric assay; type: cell-free
# T1 sequence (P08581 whole entry): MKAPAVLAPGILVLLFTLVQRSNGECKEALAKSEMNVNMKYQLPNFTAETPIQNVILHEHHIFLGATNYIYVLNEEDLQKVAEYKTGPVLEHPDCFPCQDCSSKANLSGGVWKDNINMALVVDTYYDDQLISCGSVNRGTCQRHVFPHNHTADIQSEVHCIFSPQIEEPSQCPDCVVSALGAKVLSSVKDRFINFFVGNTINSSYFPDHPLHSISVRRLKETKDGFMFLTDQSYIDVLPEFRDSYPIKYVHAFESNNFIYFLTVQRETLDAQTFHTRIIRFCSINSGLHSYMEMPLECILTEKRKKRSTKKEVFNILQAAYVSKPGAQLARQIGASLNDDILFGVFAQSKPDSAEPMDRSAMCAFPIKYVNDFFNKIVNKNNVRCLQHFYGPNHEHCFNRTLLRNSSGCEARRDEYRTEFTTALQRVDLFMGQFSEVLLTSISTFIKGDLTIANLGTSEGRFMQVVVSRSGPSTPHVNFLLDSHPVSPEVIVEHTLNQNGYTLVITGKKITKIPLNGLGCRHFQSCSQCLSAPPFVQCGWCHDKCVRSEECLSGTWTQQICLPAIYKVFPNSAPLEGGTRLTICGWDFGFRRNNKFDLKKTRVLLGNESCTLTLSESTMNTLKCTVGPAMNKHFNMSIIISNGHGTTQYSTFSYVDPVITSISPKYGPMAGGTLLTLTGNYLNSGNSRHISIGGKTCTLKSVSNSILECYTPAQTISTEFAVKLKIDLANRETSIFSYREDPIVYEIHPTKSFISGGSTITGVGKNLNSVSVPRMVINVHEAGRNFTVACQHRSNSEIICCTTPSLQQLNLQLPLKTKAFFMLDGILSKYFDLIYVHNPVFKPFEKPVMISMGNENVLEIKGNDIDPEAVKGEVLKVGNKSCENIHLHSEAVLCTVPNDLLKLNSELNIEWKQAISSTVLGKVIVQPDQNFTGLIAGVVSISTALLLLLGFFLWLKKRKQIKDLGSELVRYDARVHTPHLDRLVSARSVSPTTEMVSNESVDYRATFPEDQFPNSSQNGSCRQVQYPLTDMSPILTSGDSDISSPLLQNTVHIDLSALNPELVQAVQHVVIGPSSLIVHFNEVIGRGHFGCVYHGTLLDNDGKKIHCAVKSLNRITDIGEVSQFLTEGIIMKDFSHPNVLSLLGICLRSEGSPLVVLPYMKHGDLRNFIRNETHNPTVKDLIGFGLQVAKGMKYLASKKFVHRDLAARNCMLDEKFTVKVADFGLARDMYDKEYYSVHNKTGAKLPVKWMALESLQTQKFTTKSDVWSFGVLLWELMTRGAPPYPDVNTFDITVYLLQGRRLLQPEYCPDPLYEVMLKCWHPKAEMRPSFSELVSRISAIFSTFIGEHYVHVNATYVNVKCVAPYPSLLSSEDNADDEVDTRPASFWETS
# Glycogen synthase kinase-3 beta, sequence (P49841 whole entry): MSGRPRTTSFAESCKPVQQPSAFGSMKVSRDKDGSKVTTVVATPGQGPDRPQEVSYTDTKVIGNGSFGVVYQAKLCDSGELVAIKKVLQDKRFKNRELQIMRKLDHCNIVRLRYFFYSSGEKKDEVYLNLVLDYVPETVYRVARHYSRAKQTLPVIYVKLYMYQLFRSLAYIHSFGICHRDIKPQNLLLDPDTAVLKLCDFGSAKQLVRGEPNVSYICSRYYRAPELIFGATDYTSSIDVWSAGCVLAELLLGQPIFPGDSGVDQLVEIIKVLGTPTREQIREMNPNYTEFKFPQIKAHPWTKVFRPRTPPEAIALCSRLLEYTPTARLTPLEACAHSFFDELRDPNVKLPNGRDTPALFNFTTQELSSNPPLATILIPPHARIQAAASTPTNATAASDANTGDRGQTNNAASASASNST
# Epidermal growth factor receptor (Homo sapiens), sequence (P00533 whole entry): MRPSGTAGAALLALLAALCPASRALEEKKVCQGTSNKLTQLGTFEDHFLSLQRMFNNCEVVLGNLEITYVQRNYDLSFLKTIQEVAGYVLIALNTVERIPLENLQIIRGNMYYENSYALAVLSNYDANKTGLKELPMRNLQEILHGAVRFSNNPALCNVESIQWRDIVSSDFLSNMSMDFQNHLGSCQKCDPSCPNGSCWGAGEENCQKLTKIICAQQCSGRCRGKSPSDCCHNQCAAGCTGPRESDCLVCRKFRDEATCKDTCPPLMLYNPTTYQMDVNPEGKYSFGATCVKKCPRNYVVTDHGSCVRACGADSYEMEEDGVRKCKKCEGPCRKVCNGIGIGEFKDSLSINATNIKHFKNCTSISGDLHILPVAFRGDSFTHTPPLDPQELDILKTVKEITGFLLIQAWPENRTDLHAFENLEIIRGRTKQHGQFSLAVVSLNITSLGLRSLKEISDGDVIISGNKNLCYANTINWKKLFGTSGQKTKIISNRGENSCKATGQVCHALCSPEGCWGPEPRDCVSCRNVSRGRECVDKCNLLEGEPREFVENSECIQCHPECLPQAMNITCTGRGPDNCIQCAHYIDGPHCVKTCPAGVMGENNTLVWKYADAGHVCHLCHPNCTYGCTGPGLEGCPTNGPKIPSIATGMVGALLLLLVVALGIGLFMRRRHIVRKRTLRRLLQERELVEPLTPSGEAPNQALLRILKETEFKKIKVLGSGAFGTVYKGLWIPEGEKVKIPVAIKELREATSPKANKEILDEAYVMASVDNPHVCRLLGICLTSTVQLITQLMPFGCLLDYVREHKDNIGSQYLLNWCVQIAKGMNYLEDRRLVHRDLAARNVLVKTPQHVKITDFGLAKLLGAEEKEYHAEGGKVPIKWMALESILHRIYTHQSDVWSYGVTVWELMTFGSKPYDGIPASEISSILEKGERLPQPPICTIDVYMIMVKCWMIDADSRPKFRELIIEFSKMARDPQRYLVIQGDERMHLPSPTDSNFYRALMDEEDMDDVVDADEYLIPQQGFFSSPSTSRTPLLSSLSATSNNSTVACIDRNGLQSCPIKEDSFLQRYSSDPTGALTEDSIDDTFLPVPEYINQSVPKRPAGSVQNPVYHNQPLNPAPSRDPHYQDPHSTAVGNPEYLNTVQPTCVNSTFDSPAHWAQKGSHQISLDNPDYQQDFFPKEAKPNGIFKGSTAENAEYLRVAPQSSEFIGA
structure (smiles),measurement,setting,value
O=C1/C(=N\NC(=S)Nc2ccccc2)c2cc([N+](=O)[O-])ccc2N1CN1CCCCC1,GI50,[1],< 0.01 µM
same,GI50,[2],0.661 µM
same,GI50,[3],0.501 µM
O=C1Nc2ccc(OC(F)(F)F)cc2/C1=N/N=C1/C(=O)N(c2ccccc2)c2ccccc21,IC50,[4],7.67 µM
same,IC50,[5],4.8 µM
O=C(Cc1ccc2c(c1)CCO2)N/N=C1\CNc2cc(C(=O)NCCN3CCOCC3)cc(Br)c21,IC50,[6],0.0007 µM
CSc1ccc(CC(=O)N/N=C2\C(=O)Nc3ccccc32)cc1,IC50,[7],> 20 µM
O=C(Cc1ccc(O)c(F)c1)N/N=C1\C(=O)Nc2c(Cl)ccc(Cl)c21,IC50,[7],0.009 µM
O=C(Cc1ccc2c(c1)CCO2)N/N=C1\CNc2cc(C(=O)NCCCCN3CC[C@H](O)C3)cc(Br)c21,IC50,[6],0.0007 µM
O=C(N/N=C1\C(=O)Nc2ccc(Br)cc21)Nc1nc2ccccc2o1,IC50,[8],15.9 µM
same,IC50,[9],17.9 µM
same,IC50,[10],13.7 µM
O=C(Cc1ccc2c(c1)CCO2)N/N=C1\CNc2cc(C(=O)NCCCCN3CCC[C@H]3CO)cc(Br)c21,IC50,[6],0.0005 µM
O=c1[nH]cc(F)c(=O)[nH]1 [FLUOROURACIL],GI50,[11],6.76 µM
same,GI50,[12],55 µM
same,GI50,[13],42.7 µM
Cc1nc(-c2ccccc2)ccc1C(=O)N/N=C1\C(=O)Nc2ccc(Br)cc21,IC50,[14],25 µM
Nc1c(C(=O)N/N=C2\C(=O)Nc3ccc([N+](=O)[O-])cc32)cnn1C(=O)c1ccc(-c2nc3ccccc3s2)cc1,IC50,[15],0.01 µM
COc1ccc(NC(=S)N/N=C2\C(=O)Nc3ccccc32)cc1,IC50,[5],3.3 µM
O=C1Nc2ccc(Cl)cc2/C1=N/Nc1nc(-c2ccc3c(c2)OCO3)nc2ccccc12,IC50,[16],1 to 2.4 µM
CN1CCN(CC(=O)N/N=C2\C(=O)Nc3ccc4ccccc4c32)CC1,Activity,[17],100%
COc1ccc(-c2nc(N/N=C3\C(=O)Nc4ccccc43)c3ccccc3n2)cc1OC,IC50,[16],1 to 2.4 µM
O=C1Nc2ccc(F)cc2/C1=N/Nc1nc(-c2ccccc2)nc2ccccc12,IC50,[16],1 to 2.4 µM
O=C(Cc1ccc(O)c(Cl)c1)N/N=C1\C(=O)Nc2c(Cl)ccc(Cl)c21,IC50,[7],0.009 µM
O=C(CSc1nc2ccccc2c(=O)n1-c1ccccc1)N/N=C1\C(=O)Nc2ccc(F)cc21,GI50,[11],0.209 µM
same,GI50,[12],1.66 µM
same,GI50,[13],1.7 µM
O=C1Nc2ccc(S(=O)(=O)O)cc2/C1=N/Nc1ccccc1[N+](=O)[O-],IC50,[18],4.99 µM
CS(=O)(=O)c1ccc(CC(=O)N/N=C2\C(=O)Nc3ccccc32)cc1,IC50,[7],> 20 µM
Cc1cc2c(cc1Br)NC(=O)/C2=N\NC(=O)c1ccccc1O,IC50,[19],15.8 µM
Cc1ccc2c(c1)/C(=N/NC(=O)N/N=C1\C(=O)Nc3ccc(C)cc31)C(=O)N2,IC50,[20],16 µM
O=C(CN/N=C1\C(=O)Nc2ccccc21)Nc1nc2ccc(Cl)cc2s1,inhibition,[21],36.6%
same,growth inhibition (GI),[22],38.1%
same,growth inhibition (GI),[23],27.5%
same,growth inhibition (GI),[24],26.6%
Cc1[nH]c(/C=N/N=C2\C(=O)Nc3ccc(F)cc32)c(C)c1C(=O)NCCCCCCCC(=O)NO,inhibition,[25],98%
